Laboratory results from PubChem BioAssay AID1918935 (Molecular Pharmacology Branch, DTP, NCI, 2023).

Tested on: 324938-238-R-J1-PDC complex spheroid viability
Assay: Anticancer human tumor 324938-238-R-J1-PDC patient-derived bladder carcinoma cell line growth inhibition
Conditions: for IC50: curve of first compound; for viability, T/C: stronger effect = lower value
Outline: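 Complex spheroids of tumor cells with HUVEC and human MSCs, exposed to iadademstat combined with other agents. Each agent tested in half-log steps from near clinical Cmax (else 10 microM top), DMSO ≤0.25%.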

[1] = second compound 0.1 µM, first compound 0.000949 µM
[2] = second compound 0.1 µM, first compound 0.003 µM
[3] = second compound 0.1 µM, first compound 0.00949 µM
[4] = second compound 0.1 µM, first compound 0.03 µM
[5] = second compound 0.1 µM, first compound 0.0949 µM
[6] = second compound 0.1 µM, first compound 0.3 µM
[7] = second compound 0.316 µM, first compound 0.000949 µM
[8] = second compound 0.316 µM, first compound 0.003 µM
[9] = second compound 0.316 µM, first compound 0.00949 µM
[10] = second compound 0.316 µM, first compound 0.03 µM
[11] = second compound 0.316 µM, first compound 0.0949 µM
[12] = second compound 0.316 µM, first compound 0.3 µM
[13] = second compound 1 µM, first compound 0.000949 µM
[14] = second compound 1 µM, first compound 0.003 µM
[15] = second compound 1 µM, first compound 0.00949 µM
[16] = second compound 1 µM, first compound 0.03 µM
[17] = second compound 1 µM, first compound 0.0949 µM
[18] = second compound 1 µM, first compound 0.3 µM
[19] = second compound 3.16 µM, first compound 0.000949 µM
[20] = second compound 3.16 µM, first compound 0.003 µM
[21] = second compound 3.16 µM, first compound 0.00949 µM
[22] = second compound 3.16 µM, first compound 0.03 µM
[23] = second compound 3.16 µM, first compound 0.0949 µM
[24] = second compound 3.16 µM, first compound 0.3 µM
[25] = second compound 10 µM, first compound 0.000949 µM
[26] = second compound 10 µM, first compound 0.003 µM
[27] = second compound 10 µM, first compound 0.00949 µM
[28] = second compound 10 µM, first compound 0.03 µM
[29] = second compound 10 µM, first compound 0.0949 µM
[30] = second compound 10 µM, first compound 0.3 µM
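Also: spheroids exposed to agents for 7 days before readout.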

Compound | IC50 (second compound 0.1 µM) | IC50 (second compound 0.316 µM) | IC50 (second compound 1 µM) | IC50 (second compound 3.16 µM) | IC50 (second compound 10 µM) | viability, T/C [3] | viability, T/C [4] | viability, T/C [5] | viability, T/C [6] | viability, T/C [9] | viability, T/C [10] | viability, T/C [11] | viability, T/C [12] | viability, T/C [15] | viability, T/C [16] | viability, T/C [17] | viability, T/C [18] | viability, T/C [21] | viability, T/C [22] | viability, T/C [23] | also measured
Nc1ccn(C2OC(CO)C(O)C2(F)F)c(=O)n1 (stereo not given) + NC1CC1c1ccc(-c2cccc(O)c2)cc1 | < 0.949 nM | < 0.949 nM | < 0.949 nM | < 0.949 nM | < 0.949 nM | 6.87% | 6.29% | 6.35% | 5.04% | 5.74% | 5.98% | 5.39% | 5.59% | 5.8% | 6.74% | 5.16% | 4.64% | 7.61% | 5.95% | 5.45% | viability, T/C [1]: 11.1%; viability, T/C [2]: 8.09%; viability, T/C [7]: 10.9%; viability, T/C [8]: 7.27%; viability, T/C [13]: 11%; viability, T/C [14]: 7.32%; viability, T/C [19]: 10.4%; viability, T/C [20]: 6.79%; viability, T/C [24]: 5.23%; viability, T/C [25]: 15.8%; viability, T/C [26]: 11.2%; viability, T/C [27]: 10.4%; viability, T/C [28]: 7.49%; viability, T/C [29]: 5.31%; viability, T/C [30]: 5.65%
Nc1ccccc1NC(=O)c1ccc(CNC(=O)OCc2cccnc2)cc1 + NC1CCC(NC2CC2c2ccccc2)CC1 | 412 nM | 390 nM | 465 nM | 363 nM | 375 nM | 92% | 81.6% | 68.5% | 54.4% | 84.3% | 88% | 67.6% | 55% | 79% | 76.2% | 73.3% | 54.5% | 81.5% | 72.4% | 62% | viability, T/C (second compound 0.1 µM, first compound 0.949 µM): 39.9%; viability, T/C (second compound 0.1 µM, first compound 3 µM): 17.2%; viability, T/C (second compound 0.316 µM, first compound 0.949 µM): 34.6%; viability, T/C (second compound 0.316 µM, first compound 3 µM): 12.9%; viability, T/C (second compound 1 µM, first compound 0.949 µM): 39.2%; viability, T/C (second compound 1 µM, first compound 3 µM): 14.9%; viability, T/C [24]: 54.9%; viability, T/C (second compound 3.16 µM, first compound 0.949 µM): 37.9%; viability, T/C (second compound 3.16 µM, first compound 3 µM): 16%; viability, T/C [27]: 76.8%; viability, T/C [28]: 68.9%; viability, T/C [29]: 68.2%; viability, T/C [30]: 50.5%; viability, T/C (second compound 10 µM, first compound 0.949 µM): 37.8%; viability, T/C (second compound 10 µM, first compound 3 µM): 12.4%
Nc1ncn(C2CC(O)C(CO)S2)c(=O)n1 (stereo not given) + NC1CC1c1ccc(-c2cccc(O)c2)cc1 | 16.4 nM | 13.3 nM | 8.37 nM | 14.4 nM | 9.28 nM | 58.1% | 37.9% | 26.6% | 16.9% | 54% | 36.9% | 29% | 16% | 48.4% | 38.1% | 28% | 16.8% | 55.2% | 41.1% | 32.2% | viability, T/C [1]: 84.5%; viability, T/C [2]: 87.4%; viability, T/C [7]: 78.1%; viability, T/C [8]: 70.5%; viability, T/C [13]: 63.4%; viability, T/C [14]: 59.2%; viability, T/C [19]: 67.2%; viability, T/C [20]: 62%; viability, T/C [24]: 17.5%; viability, T/C [25]: 62.9%; viability, T/C [26]: 57.5%; viability, T/C [27]: 48.8%; viability, T/C [28]: 42.3%; viability, T/C [29]: 29.1%; viability, T/C [30]: 25%
